This is an account of results in patent publication US5556878A, “Δ^6,7 -taxols antineoplatic use and pharmaceutical compositions containing them” (The Upjohn Company, priority 1994, dated 1996).

In brackets after ≈: the same amount, converted by molar mass. Read-outs that look alike come from different tables or passages of the source.

The subject of one experiment is L1210 leukemia. The experiment is described as follows: L1210 leukemia cell proliferation inhibition (Table I). It counts as cell-based. The note with it: Mus musculus. The text has this: The biological activity of the compounds of this invention has been further confirmed using well known procedures against L1210 leukemia and the results set forth in Table I. The results were obtained using standard well known procedure (Li, L. H.; Kuentzel, S. L.; Murch, L. L.; Pschigoga, L. M.; and W. C. Krueger, "Comparative biological and biochemical effects of nogalamycin and its analogs on L1210 leukemia," Cancer Res. 39:4816-4822 (1979)). The results are expressed as an IC50 which is the drug concentration required to inhibit cell proliferation to 50% of that of untreated control cells. Lower numbers indicated greater activity.

Experiment [1] deals with A2780 (human ovarian carcinoma) cells. The experiment is described as follows: Cytotoxicity in A2780 (human ovarian carcinoma) cells in culture (IC90). The class given is cell-based. The note with it: read-out: IC90 (90% growth inhibitory concentration). The text has this:
(§1) The biological activity of the 7-deoxy-7-halotaxol compounds (Formula III) of the invention has been confirmed using well known procedures.

The test system of a further experiment is tubulin. Briefly: In vitro tubulin polymerization assay after Gaskin et al. As to conditions: 20° C.; for induction of tubulin polymerization in vitro: compared with taxol. It counts as biochemical.
From the text: (§2) The biological activity of the 7-deoxy-7β,8β-methanotaxol compounds (Formula II) of the invention has been confirmed using well known procedures.
as §1

In experiment [2] the test system is L1210 mouse leukemia carcinoma cells. The experiment is described as follows: Cytotoxicity in L1210 mouse leukemia carcinoma cells in culture (IC90). The class given is cell-based. The note with it: read-out: IC90 (90% growth inhibitory concentration).
From the text: as §2

Where [3] appears, read: L1210, drug concentration required to inhibit cell proliferation to 50% of untreated control cells, read-out: L1210 (IC50 μg/ml).
Where [4] appears, read: L1210, read-out: L1210 (IC50 μg/ml).

As for `CC(=O)O[C@H]1C(=O)[C@]2(C)C(F)C[C@H]3OC[C@@]3(OC(C)=O)[C@H]2[C@H](OC(=O)c2ccccc2)[C@]2(O)C[C@H](OC(=O)[C@H](OC(=O)OCC(Cl)(Cl)Cl)[C@@H](NC(=O)c3ccccc3)c3ccccc3)C(C)=C1C2(C)C` (stereo partly drawn) [Compound 13AA, 2'-{[(2,2,2-Trichloroethyl)-oxy]carbonyl)-7-deoxy-7-fluorotaxol], the IC50 in the experiment with L1210 leukemia (setting [3]) was 0.054 µg/mL (≈ 0.0524 µM).

Take `CC(=O)O[C@H]1C(=O)[C@]2(C)C(F)C[C@H]3OC[C@@]3(OC(C)=O)[C@H]2[C@H](OC(=O)c2ccccc2)[C@]2(O)C[C@H](OC(=O)[C@H](OC(=O)OCC(Cl)(Cl)Cl)[C@@H](NC(=O)OC(C)(C)C)c3ccccc3)C(C)=C1C2(C)C` (stereo partly drawn) [Compound 13DA, N-Debenzoyl-N-(t-butyl)oxycarbonyl-2'-{[(2,2,2-trichloroethyl)oxy]carbonyl}-7-deoxy-7-fluorotaxol]: in the experiment with L1210 leukemia (setting [3]), the IC50 amounted to 0.015 µg/mL (≈ 0.0146 µM).

As to `CC(=O)O[C@H]1C(=O)[C@]23C[C@H]2C[C@H]2OC[C@@]2(OC(C)=O)[C@H]3[C@H](OC(=O)c2ccccc2)[C@]2(O)C[C@H](OC(=O)[C@H](OC(=O)OCC(Cl)(Cl)Cl)[C@@H](NC(=O)c3ccccc3)c3ccccc3)C(C)=C1C2(C)C` [Compound 14AA, 2'-{[(2,2,2-Trichloroethyl)oxy]carbonyl}-7-deoxy-7β,8β-methanotaxol], the IC50 in the experiment on L1210 leukemia (setting [3]) is > 0.1 µg/mL.

As for `CC(=O)O[C@H]1C(=O)[C@]23C[C@H]2C[C@H]2OC[C@@]2(OC(C)=O)[C@H]3[C@H](OC(=O)c2ccccc2)[C@]2(O)C[C@H](OC(=O)[C@H](OC(=O)OCC(Cl)(Cl)Cl)[C@@H](NC(=O)OC(C)(C)C)c3ccccc3)C(C)=C1C2(C)C` [Compound 14DA, N-Debenzoyl-N-(t-butyl)oxycarbonyl-2'-{[(2,2,2-trichloroethyl)oxy]carbonyl}-7-deoxy-7β,8β-methanotaxol], the IC50 in the experiment with L1210 leukemia (setting [3]) stood at 0.012 µg/mL (≈ 0.0119 µM).

With `CC(=O)O[C@H]1C(=O)[C@]2(C)C=C[C@H]3OC[C@@]3(OC(C)=O)[C@H]2[C@H](OC(=O)c2ccccc2)[C@]2(O)C[C@H](OC(=O)[C@H](OC(=O)OCC(Cl)(Cl)Cl)[C@@H](NC(=O)c3ccccc3)c3ccccc3)C(C)=C1C2(C)C` [Compound 15AA, 2'-{[(2,2,2-Trichloroethyl)oxy]carbonyl)-7-deoxy-Δ^6,7-taxol], in the experiment with L1210 leukemia (setting [3]), the IC50 was found to be 0.012 µg/mL (≈ 0.0119 µM).

With `CC(=O)O[C@H]1C(=O)[C@]2(C)C=C[C@H]3OC[C@@]3(OC(C)=O)[C@H]2[C@H](OC(=O)c2ccccc2)[C@]2(O)C[C@H](OC(=O)[C@H](O)[C@@H](NC(=O)c3ccccc3)c3ccccc3)C(C)=C1C2(C)C` [Compound 16A, 7-Deoxy-Δ^6,7-taxol], the IC50 in the experiment with L1210 leukemia (setting [3]) is 0.0042 µg/mL (≈ 0.00502 µM).

For `CC(=O)O[C@H]1C(=O)[C@]2(C)C=C[C@H]3OC[C@@]3(OC(C)=O)[C@H]2[C@H](OC(=O)c2ccccc2)[C@]2(O)C[C@H](OC(=O)[C@H](O)[C@@H](NC(=O)OC(C)(C)C)c3ccccc3)C(C)=C1C2(C)C` [Compound 16D, N-Debenzoyl-N-(t-butyl)oxycarbonyl-7-deoxy-Δ^6,7-taxol], the IC50 in the experiment with L1210 leukemia (setting [4]) came out at 0.0016 µg/mL (≈ 0.00192 µM).

Turning to `CC(=O)O[C@H]1C(=O)[C@]2(C)C=C[C@H]3OC[C@@]3(OC(C)=O)[C@H]2[C@H](OC(=O)c2ccccc2)[C@]2(O)C[C@H](OC(=O)[C@H](O)[C@@H](NC(=O)NC(C)(C)C)c3ccccc3)C(C)=C1C2(C)C` [Compound 16F, 13-(N-t-Butylurea-β-phenyl-isoserinyl)-Δ^6,7-baccatin III], the IC50 in the experiment with L1210 leukemia (setting [4]) stood at 0.0032 µg/mL (≈ 0.00385 µM).

With `CC(=O)O[C@H]1C(=O)[C@]2(C)C(F)C[C@H]3OC[C@@]3(OC(C)=O)[C@H]2[C@H](OC(=O)c2ccccc2)[C@]2(O)C[C@H](OC(=O)[C@H](O)[C@@H](NC(=O)OC(C)(C)C)c3ccccc3)C(C)=C1C2(C)C` (stereo partly drawn) [Compound 20, N-Debenzoyl-N-(t-butyl)oxycarbonyl-7-deoxy-7-fluorotaxol], the IC50 with L1210 leukemia (setting [3]) turned out to be 0.0038 µg/mL (≈ 0.00446 µM).

As for `CC(=O)O[C@H]1C(=O)[C@]23C[C@H]2C[C@H]2OC[C@@]2(OC(C)=O)[C@H]3[C@H](OC(=O)c2ccccc2)[C@]2(O)C[C@H](OC(=O)[C@H](O)[C@@H](NC(=O)OC(C)(C)C)c3ccccc3)C(C)=C1C2(C)C` [Compound 23, N-Debenzoyl-N-(t-butyl)oxycarbonyl-7-deoxy-7β,8β-methanotaxol], in the experiment with L1210 leukemia (setting [3]), the IC50 is 0.0046 µg/mL (≈ 0.00553 µM).

Turning to `CC(=O)O[C@H]1C(=O)[C@]2(C)C(F)C[C@H]3OC[C@@]3(OC(C)=O)[C@H]2[C@H](OC(=O)c2ccccc2)[C@]2(O)C[C@H](OC(=O)[C@H](O)[C@@H](NC(=O)c3ccccc3)c3ccccc3)C(C)=C1C2(C)C` (stereo partly drawn) [Compound IIIb, 7-Deoxy-7-fluorotaxol], the IC90 in experiment [1] was 0.016 µg/mL (≈ 0.0187 µM). Also, the IC50 in the experiment on L1210 leukemia (setting [3]) was found to be 0.01 µg/mL (≈ 0.0117 µM). For the same molecule, in the experiment with tubulin, the “potency in tubulin polymerization assay relative to taxol” value is on record as “approximately half as potent as taxol” and the “induction of tubulin polymerization in vitro” value is “able to induce tubulin polymerization in vitro at 20 °C in a manner very similar to taxol”.

For `CC(=O)O[C@H]1C(=O)[C@]23C[C@H]2C[C@H]2OC[C@@]2(OC(C)=O)[C@H]3[C@H](OC(=O)c2ccccc2)[C@]2(O)C[C@H](OC(=O)[C@H](O)[C@@H](NC(=O)c3ccccc3)c3ccccc3)C(C)=C1C2(C)C` [Compound IIb, 7-Deoxy-7β,8β-methanotaxol], the IC90 in experiment [2] amounted to 0.025 µg/mL (≈ 0.0299 µM). In addition, the IC50 in the experiment with L1210 leukemia (setting [3]) came to 0.012 µg/mL (≈ 0.0144 µM). In the experiment with tubulin, the “induction of tubulin polymerization in vitro” value was “able to induce tubulin polymerization in vitro at 20 °C in a manner very similar to taxol”.

As to `CC(=O)O[C@H]1C(=O)[C@@]2(C)[C@H]([C@H](OC(=O)c3ccccc3)[C@]3(O)C[C@H](OC(=O)[C@H](O)[C@@H](NC(=O)c4ccccc4)c4ccccc4)C(C)=C1C3(C)C)[C@]1(OC(C)=O)CO[C@@H]1C[C@@H]2O` [Taxol], the values for the IC90 in experiment [2] and in experiment [1] were 0.06 µg/mL (≈ 0.0703 µM) and 0.007 µg/mL (≈ 0.0082 µM), respectively. Further, the IC50 with L1210 leukemia (setting [3]) worked out at 0.015 µg/mL (≈ 0.0176 µM).

For `CC(=O)O[C@@]12CO[C@@H]1C[C@H](O)[C@@]1(C)C(=O)[C@H](O)C3=C(C)[C@@H](OC(=O)[C@H](O)[C@@H](NC(=O)OC(C)(C)C)c4ccccc4)C[C@@](O)([C@@H](OC(=O)c4ccccc4)[C@H]21)C3(C)C` [Taxotere, reference compound], the IC50 in the experiment on L1210 leukemia (setting [3]) turned out to be 0.004 µg/mL (≈ 0.00495 µM).
